According to ChEMBL document CHEMBL5247625, “Discovery and characterization of novel potent BCR-ABL degraders by conjugating allosteric inhibitor” (Eur J Med Chem, 2022):
Calls of active or inactive are those of the source. No cut-off for these calls is given here.

Biological target: Protein cereblon/Tyrosine-protein kinase ABL1/Breakpoint cluster region protein (Homo sapiens, UniProt P00519+P11274+Q96SW2)
Assay: Protac activity at CRBN/BCR-ABL in human K562 cells assessed as induction of c-ABL degradation at 100 nM pretreated with MLN4924 for 2 hrs followed by compound addition measured after 8 hrs by Western blotting analysis
Type: cell-based
Conditions: time 10.0 hrs

Sequence of Protein cereblon/Tyrosine-protein kinase ABL1/Breakpoint cluster region protein (P00519 whole entry, looked up): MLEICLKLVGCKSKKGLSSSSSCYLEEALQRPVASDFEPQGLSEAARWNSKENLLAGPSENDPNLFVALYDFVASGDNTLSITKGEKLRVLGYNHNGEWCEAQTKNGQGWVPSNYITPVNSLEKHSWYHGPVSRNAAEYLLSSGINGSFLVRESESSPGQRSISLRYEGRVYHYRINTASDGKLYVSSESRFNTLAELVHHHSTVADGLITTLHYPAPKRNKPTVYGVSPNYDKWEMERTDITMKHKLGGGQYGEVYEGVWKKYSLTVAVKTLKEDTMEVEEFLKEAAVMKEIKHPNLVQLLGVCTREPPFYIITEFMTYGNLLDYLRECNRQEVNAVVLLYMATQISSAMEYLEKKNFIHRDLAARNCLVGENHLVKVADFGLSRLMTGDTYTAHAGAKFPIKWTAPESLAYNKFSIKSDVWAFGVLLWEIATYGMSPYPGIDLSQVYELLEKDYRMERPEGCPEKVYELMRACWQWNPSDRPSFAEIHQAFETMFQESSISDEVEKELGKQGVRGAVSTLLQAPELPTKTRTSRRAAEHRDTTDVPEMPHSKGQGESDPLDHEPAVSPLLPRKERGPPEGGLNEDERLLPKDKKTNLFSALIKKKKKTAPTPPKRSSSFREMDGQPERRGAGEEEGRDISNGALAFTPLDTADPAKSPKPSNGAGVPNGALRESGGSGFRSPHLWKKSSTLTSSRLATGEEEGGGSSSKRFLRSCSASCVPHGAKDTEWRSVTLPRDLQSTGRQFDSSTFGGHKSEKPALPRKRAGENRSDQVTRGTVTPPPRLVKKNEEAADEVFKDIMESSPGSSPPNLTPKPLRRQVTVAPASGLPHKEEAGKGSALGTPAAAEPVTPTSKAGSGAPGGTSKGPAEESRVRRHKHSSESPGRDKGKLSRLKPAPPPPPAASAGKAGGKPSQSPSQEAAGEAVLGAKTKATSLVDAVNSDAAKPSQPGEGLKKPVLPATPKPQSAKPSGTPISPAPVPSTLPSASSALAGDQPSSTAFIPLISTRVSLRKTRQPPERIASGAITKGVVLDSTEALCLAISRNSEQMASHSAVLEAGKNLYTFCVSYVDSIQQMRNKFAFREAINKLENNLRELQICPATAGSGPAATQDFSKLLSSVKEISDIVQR
Sequence of Protein cereblon/Tyrosine-protein kinase ABL1/Breakpoint cluster region protein (P11274 whole entry, looked up): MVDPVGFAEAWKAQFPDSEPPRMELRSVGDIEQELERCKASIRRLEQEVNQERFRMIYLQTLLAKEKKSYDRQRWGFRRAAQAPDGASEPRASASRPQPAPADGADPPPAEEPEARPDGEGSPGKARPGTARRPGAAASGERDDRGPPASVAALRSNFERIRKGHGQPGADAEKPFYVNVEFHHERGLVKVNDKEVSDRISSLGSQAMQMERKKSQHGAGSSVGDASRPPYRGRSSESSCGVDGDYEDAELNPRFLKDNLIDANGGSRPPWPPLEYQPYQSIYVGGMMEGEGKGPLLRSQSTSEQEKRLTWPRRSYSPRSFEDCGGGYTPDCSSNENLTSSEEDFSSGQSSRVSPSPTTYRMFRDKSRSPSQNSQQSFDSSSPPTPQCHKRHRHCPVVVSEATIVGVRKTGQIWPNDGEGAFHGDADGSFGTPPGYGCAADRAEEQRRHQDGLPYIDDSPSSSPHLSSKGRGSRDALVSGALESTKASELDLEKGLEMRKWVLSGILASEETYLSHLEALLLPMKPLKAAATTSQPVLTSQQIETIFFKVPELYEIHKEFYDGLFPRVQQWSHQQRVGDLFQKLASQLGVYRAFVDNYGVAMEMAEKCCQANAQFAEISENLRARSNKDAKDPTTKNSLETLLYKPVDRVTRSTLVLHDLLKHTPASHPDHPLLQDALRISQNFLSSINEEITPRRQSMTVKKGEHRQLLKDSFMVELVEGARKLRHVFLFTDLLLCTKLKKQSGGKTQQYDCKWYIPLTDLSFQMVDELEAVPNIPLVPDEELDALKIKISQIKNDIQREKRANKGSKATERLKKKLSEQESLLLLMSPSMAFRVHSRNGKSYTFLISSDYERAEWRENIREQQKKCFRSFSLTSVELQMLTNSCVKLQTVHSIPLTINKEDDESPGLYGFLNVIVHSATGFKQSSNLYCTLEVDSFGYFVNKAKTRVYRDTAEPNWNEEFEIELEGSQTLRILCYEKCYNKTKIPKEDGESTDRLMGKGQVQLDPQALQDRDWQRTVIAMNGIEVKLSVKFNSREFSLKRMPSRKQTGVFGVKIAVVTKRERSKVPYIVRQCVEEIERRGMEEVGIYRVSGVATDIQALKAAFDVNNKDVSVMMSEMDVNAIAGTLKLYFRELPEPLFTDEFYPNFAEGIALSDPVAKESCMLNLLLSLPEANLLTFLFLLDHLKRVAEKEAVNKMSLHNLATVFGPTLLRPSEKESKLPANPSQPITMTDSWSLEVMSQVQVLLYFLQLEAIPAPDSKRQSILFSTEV
Sequence of Protein cereblon/Tyrosine-protein kinase ABL1/Breakpoint cluster region protein (Q96SW2 whole entry, looked up): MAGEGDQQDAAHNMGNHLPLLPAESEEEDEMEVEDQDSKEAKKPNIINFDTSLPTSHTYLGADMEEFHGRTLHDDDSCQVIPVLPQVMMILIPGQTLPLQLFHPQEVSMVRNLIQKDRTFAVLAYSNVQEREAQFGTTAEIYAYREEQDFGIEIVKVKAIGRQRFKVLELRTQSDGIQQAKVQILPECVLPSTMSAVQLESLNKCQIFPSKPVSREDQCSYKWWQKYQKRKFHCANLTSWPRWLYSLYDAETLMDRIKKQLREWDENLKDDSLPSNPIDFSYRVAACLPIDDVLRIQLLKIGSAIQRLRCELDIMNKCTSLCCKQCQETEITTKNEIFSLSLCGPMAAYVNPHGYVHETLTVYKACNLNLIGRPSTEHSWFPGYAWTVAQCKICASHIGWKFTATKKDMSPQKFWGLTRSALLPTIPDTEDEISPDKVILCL

## O=C1CCC(N2Cc3c(SCCCCCCN4CCN(C5CCN(c6ncc(C(=O)Nc7ccc(OC(F)(F)Cl)cc7)cc6-c6ccn[nH]6)CC5)CC4)cccc3C2=O)C(=O)N1 (stereo unspecified)
  Activity: inactive
